Holding throughout (assay type): biochemical
One test concerns the target T1, human IP6K1 (Homo sapiens, UniProt Q92551).
T1 construct: human IP6K1 (1-441) gene; GST; made in house; host or cells: Sf-9 insect cells
The test is described as follows: IP6K enzyme inhibitory assay (ADP-Glo Kinase Assay), human IP6K1. To be noted: compound concentration 0.1 μM; read-out: ADP-Glo method inhibitory rate (%) human IP6K1. The method, boiled down:
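Inhibition of human IP6K1 was determined with Promega's ADP-Glo Kinase Assay in 384 well plates. Test compound diluted in assay buffer (20 mM HEPES (pH 7.5), 6 mM MgCl2, 0.01% Tween-20, 1 mM DTT) was added at 2 μL, then 2 μL of enzyme started the reaction for 60 min at room temperature. Next came 3 μL ADP-Glo solution for 30 min and 6 μL Kinase-Detection solution for 60 min. Luminescence was read on an Envision plate reader.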

The target in the next test is T2, human IP6K2 (Homo sapiens, UniProt Q9UHH9).
T2 construct: human IP6K2 (1-426) gene; GST; made in house; host or cells: Sf-9 insect cells
T2 sequence (Q9UHH9 1-426): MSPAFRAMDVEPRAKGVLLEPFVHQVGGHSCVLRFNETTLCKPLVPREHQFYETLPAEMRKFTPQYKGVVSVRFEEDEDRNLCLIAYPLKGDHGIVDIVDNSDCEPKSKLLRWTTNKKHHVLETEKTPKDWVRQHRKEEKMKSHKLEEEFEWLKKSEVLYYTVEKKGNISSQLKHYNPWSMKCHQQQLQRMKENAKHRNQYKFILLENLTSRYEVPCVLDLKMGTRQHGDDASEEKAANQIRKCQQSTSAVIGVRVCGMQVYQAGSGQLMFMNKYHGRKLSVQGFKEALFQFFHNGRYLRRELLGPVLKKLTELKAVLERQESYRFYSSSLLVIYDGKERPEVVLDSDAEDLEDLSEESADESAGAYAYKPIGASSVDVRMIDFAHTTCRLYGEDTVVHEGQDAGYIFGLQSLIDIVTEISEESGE
The test is described as follows: IP6K enzyme inhibitory assay (ADP-Glo Kinase Assay), human IP6K2. To be noted: compound concentration 0.1 μM; read-out: ADP-Glo method inhibitory rate (%) human IP6K2. The method, boiled down: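 The inhibitory activity against human IP6K2 was measured with Promega's ADP-Glo Kinase Assay in 384 well plates. Test compound, diluted in assay buffer (20 mM HEPES (pH 7.5), 6 mM MgCl2, 0.01% Tween-20, 1 mM DTT), was added at 2 μL. Adding 2 μL of diluted enzyme started the reaction, which ran for 60 min at room temperature. Next, 3 μL ADP-Glo solution (30 min) and 6 μL Kinase-Detection solution (60 min) were added, and luminescence was read on an Envision plate reader.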

In the next test the target is T3, human IP6K3 (Homo sapiens, UniProt Q96PC2).
T3 construct: human IP6K3 (1-410) gene; made in house; host or cells: BL21 (DE3) Escherichia coli
T3 sequence (Q96PC2 1-410): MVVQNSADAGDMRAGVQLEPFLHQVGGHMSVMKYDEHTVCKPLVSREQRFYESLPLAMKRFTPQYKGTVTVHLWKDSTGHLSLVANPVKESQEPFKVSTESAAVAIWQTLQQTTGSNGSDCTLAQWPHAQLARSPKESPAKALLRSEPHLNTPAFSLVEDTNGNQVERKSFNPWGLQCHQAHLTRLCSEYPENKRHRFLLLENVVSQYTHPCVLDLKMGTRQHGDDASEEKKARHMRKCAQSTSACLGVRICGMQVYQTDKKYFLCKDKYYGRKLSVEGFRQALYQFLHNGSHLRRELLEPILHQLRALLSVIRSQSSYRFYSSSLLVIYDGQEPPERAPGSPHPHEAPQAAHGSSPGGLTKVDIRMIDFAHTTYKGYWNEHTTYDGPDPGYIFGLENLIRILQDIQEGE
Description: IP6K enzyme inhibitory assay (ADP-Glo Kinase Assay), human IP6K3. Particulars: compound concentration 0.1 μM; read-out: ADP-Glo method inhibitory rate (%) human IP6K3. Put shortly: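 Recombinant human IP6K (IP6K3 residues 1-410, E. coli, Ni-NTA purified) incubated with compound in 20 mM HEPES pH 7.5, 6 mM MgCl2, 0.01% Tween-20, 1 mM DTT for 60 min at room temperature. ADP formed read as luminescence by ADP-Glo.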

T1 sequence (Q92551 whole entry): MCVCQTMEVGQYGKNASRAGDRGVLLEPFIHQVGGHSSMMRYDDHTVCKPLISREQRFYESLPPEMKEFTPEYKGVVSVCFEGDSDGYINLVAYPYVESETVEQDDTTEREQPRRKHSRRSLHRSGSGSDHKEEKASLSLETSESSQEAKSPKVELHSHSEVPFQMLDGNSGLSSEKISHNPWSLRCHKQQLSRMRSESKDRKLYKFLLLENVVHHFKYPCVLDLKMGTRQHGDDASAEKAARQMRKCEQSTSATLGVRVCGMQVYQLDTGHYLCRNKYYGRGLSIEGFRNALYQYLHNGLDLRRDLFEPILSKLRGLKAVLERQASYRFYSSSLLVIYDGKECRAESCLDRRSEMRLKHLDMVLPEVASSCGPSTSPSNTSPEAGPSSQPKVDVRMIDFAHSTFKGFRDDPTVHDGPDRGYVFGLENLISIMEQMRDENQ

With `Cc1ccc(C#N)c(O[C@H]2CC[C@]3(CC2)C(=O)Nc2ccc(C(=O)O)cc23)n1` [Example 104, (1s,4s)-4-((3-cyano-6-methylpyridin-2-yl)oxy)-2′-oxo-1′,2′-dihydrospiro[cyclohexane-1,3′-indole]-5′-carboxylic acid], the inhibition at 0.1 µM was 95% at human IP6K1, 99% at human IP6K2 and 98% on human IP6K3.
With `O=C(O)c1ccc2c(n1)[C@]1(CC[C@@H](Oc3ncc(C(F)(F)F)cc3Cl)CC1)C(=O)N2` [Example 105, (1r,4r)-4-((3-chloro-5-(trifluoromethyl)pyridin-2-yl)oxy)-2′-oxo-1′,2′-dihydrospiro[cyclohexane-1,3′-pyrrolo[3,2-b]pyridine]-5′-carboxylic acid], the inhibition at 0.1 µM is 86% on human IP6K1, 94% at human IP6K2 and 95% at human IP6K3.
The matching figures for `Cc1c(Cl)cnc(O[C@H]2CC[C@]3(CC2)C(=O)Nc2ccc(C(=O)O)nc23)c1C#N` [Example 106, (1s,4s)-4-((5-chloro-3-cyano-4-methylpyridin-2-yl)oxy)-2′-oxo-1′,2′-dihydrospiro[cyclohexane-1,3′-pyrrolo[3,2-b]pyridine]-5′-carboxylic acid]: 96%, 97% and 95%.
Regarding `O=C(O)c1ccc2c(c1)[C@]1(CC[C@H](Oc3ccccc3)CC1)C(=O)N2` [Example 107, (1s,4s)-2′-oxo-4-phenoxy-1′,2′-dihydrospiro[cyclohexane-1,3′-indole]-5′-carboxylic acid], the inhibition at 0.1 µM was 94% at human IP6K1, 93% on human IP6K2 and 92% on human IP6K3.
For the compound `O=C(O)c1ccc2c(c1)[C@]1(CC[C@H](Oc3ccc(Cl)cc3)CC1)C(=O)N2` [Example 108, (1s,4s)-4-(4-chlorophenoxy)-2′-oxo-1′,2′-dihydrospiro[cyclohexane-1,3′-indole]-5′-carboxylic acid], the inhibition at 0.1 µM at human IP6K1 is 97%; at human IP6K2 it was 101%; on human IP6K3, 99%.
The matching figures for `O=C(O)c1ccc2c(n1)[C@]1(CC[C@@H](Oc3ncc(C4CC4)cc3C(F)(F)F)CC1)C(=O)N2` [Example 109, (1r,4r)-4-((5-cyclopropyl-3-(trifluoromethyl)pyridin-2-yl)oxy)-2′-oxo-1′,2′-dihydrospiro[cyclohexane-1,3′-pyrrolo[3,2-b]pyridine]-5′-carboxylic acid]: 94%, 95% and 95%.
The matching figures for `N#Cc1cc(Cl)cnc1O[C@H]1CC[C@]2(CC1)C(=O)Nc1ccc(C(=O)O)nc12` [Example 110, (1s,4s)-4-((5-chloro-3-cyanopyridin-2-yl)oxy)-2′-oxo-1′,2′-dihydrospiro[cyclohexane-1,3′-pyrrolo[3,2-b]pyridine]-5′-carboxylic acid]: 84%, 96% and 96%.
`O=C(O)c1ccc2c(n1)[C@]1(CC[C@H](Oc3ncc(C4CC4)cc3Cl)CC1)C(=O)N2` [Example 111, (1s,4s)-4-((3-chloro-5-cyclopropylpyridin-2-yl)oxy)-2′-oxo-1′,2′-dihydrospiro[cyclohexane-1,3′-pyrrolo[3,2-b]pyridine]-5′-carboxylic acid]: the values for the inhibition at 0.1 µM at human IP6K1, at human IP6K2 and on human IP6K3 were 91%, 99% and 98%, respectively.
Turning to `Cc1cc(C(F)(F)F)cnc1O[C@H]1CC[C@@]2(CC1)C(=O)Nc1ccc(C(=O)O)nc12` [Example 112, (1r,4r)-4-((3-methyl-5-(trifluoromethyl)pyridin-2-yl)oxy)-2′-oxo-1′,2′-dihydrospiro[cyclohexane-1,3′-pyrrolo[3,2-b]pyridine]-5′-carboxylic acid], the inhibition at 0.1 µM at human IP6K1 is 90%; on human IP6K2, 90%; at human IP6K3, 97%.
As to `O=C(O)c1ccc2c(c1)[C@]1(CC[C@@H](Oc3ccccc3)CC1)C(=O)N2` [Example 113, (1r,4r)-2′-oxo-4-phenoxy-1′,2′-dihydrospiro[cyclohexane-1,3′-indole]-5′-carboxylic acid], the values for the inhibition at 0.1 µM on human IP6K1, at human IP6K2 and at human IP6K3 were 79%, 79% and 85%, respectively.
For the compound `O=C(O)c1ccc2c(c1)[C@]1(CC[C@@H](Oc3ccc(Cl)cc3)CC1)C(=O)N2` [Example 114, (1r,4r)-4-(4-chlorophenoxy)-2′-oxo-1′,2′-dihydrospiro[cyclohexane-1,3′-indole]-5′-carboxylic acid], the inhibition at 0.1 µM on human IP6K1 was found to be 99%; on human IP6K2, 101%; at human IP6K3, 96%.
For the compound `O=C(O)c1ccc2c(n1)[C@]1(CC[C@H](Oc3ncc(C(F)(F)F)cc3Cl)CC1)C(=O)N2` [Example 115, (1s,4s)-4-((3-chloro-5-(trifluoromethyl)pyridin-2-yl)oxy)-2′-oxo-1′,2′-dihydrospiro[cyclohexane-1,3′-pyrrolo[3,2-b]pyridine]-5′-carboxylic acid], the inhibition at 0.1 µM at human IP6K1 stood at 97%; on human IP6K2 it was 99%; on human IP6K3 it was 99%.

The record behind these values is US10968178B2, “IP6K inhibitors” (TAKEDA PHARMACEUTICAL COMPANY LIMITED, priority 2017, dated 2021).
